pIC50: −log10 of the molar value. Where a SMILES comes first, the peptide text is derived from it. [ ]: non-standard residue; d: D form. The star is where a group is joined. sY = N[C@@H](Cc1ccc(OS(=O)(=O)O)cc1)C(=O)O; X1 = O=S(=O)(O)O*
How the values were obtained:
C8166 [1] = test: Anti HIV-1 activity was evaluated through C8166/GUN1WT syncytium formation assay at a concentration of 200 ug/mL; assay type: functional, Homo sapiens
C8166 [2] = test: Anti HIV-1 activity was evaluated through C8166/GUN1WT syncytium formation assay at a concentration of 50 ug/mL; assay type: functional, Homo sapiens
[3] = Anti HIV-1 activity measured in terms of cytotoxicity against NP-2/CD4/CCR5 cells infected with HIV-1(GUN1WT); assay type: functional, cell-based, Homo sapiens
[4] = Anti HIV-1 activity measured in terms of cytotoxicity against NP-2/CD4/CXCR4 cells infected with HIV-1 (IIIBstrain); assay type: functional, cell-based, Homo sapiens
[5] = Anti HIV-1 activity measured in terms of cytotoxicity against NP-2/CD4/CXCR4 cells infected with HIV-1(GUN1WT); assay type: functional, cell-based, Homo sapiens
[6] = Anti HIV-1 activity measured in terms of cytotoxicity against NP-2/CD4/GPR1 cells infected with HIV-1 (GUN1V); assay type: functional, cell-based, Homo sapiens
C8166 [7] = test: Anti HIV-1 activity was evaluated through C8166/GUN1WT syncytium formation assay at a concentration of 1000 ug/mL; assay type: functional, Homo sapiens
C8166 [8] = test: Anti HIV-1 activity was evaluated through C8166/GUN1WT syncytium formation assay at a concentration of 0 ug/mL; assay type: functional, Homo sapiens

SMILES	Activity (C8166 [1])	Activity (C8166 [2])	pIC50 ([3]; Homo sapiens, CCR5)	pIC50 ([4]; Homo sapiens)	pIC50 ([5]; Homo sapiens)	pIC50 ([6]; Homo sapiens)	Activity (C8166 [7])	pIC50 ([3]; np-2/cd4/ccr5)	pIC50 [4]	pIC50 [5]	pIC50 [6]	Activity (C8166 [8])
CCN(CC)CC.CCN(CC)CC.CCN(CC)CC.CCN(CC)CC.CCN(CC)CC.COC(=O)C(=O)N1CCC[C@H]1C(=O)N[C@H](Cc1ccccc1)C(=O)Nc1ccccc1OCC(=O)N[C@@H](Cc1ccc(OS(=O)(=O)O)cc1)C(=O)N[C@@H](CC(=O)OS(=O)(=O)O)C(=O)N[C@@H](CC(C)C)C(=O)N[C@@H](CC(=O)OS(=O)(=O)O)C(=O)N[C@@H](Cc1ccc(OS(=O)(=O)O)cc1)C(=O)N[C@@H](Cc1ccc(OS(=O)(=O)O)cc1)C(=O)O	88	182	4.22	4.26	4.10	4.46	12					
CC(C)C[C@H](NC(=O)[C@H](CC(=O)O)NC(=O)[C@@H](N)Cc1ccc(O)cc1)C(=O)N[C@@H](CC(=O)O)C(=O)N[C@@H](Cc1ccc(O)cc1)C(=O)N[C@@H](Cc1ccc(O)cc1)C(=O)O (H-YDLDYY-OH)	62	188	4.18	3.46	3.74	4.38	4					
COC(=O)C(=O)N1CCC[C@H]1C(=O)N[C@H](Cc1ccccc1)C(=O)Nc1ccccc1OCC(=O)N[C@@H](Cc1ccc(O)cc1)C(=O)N[C@@H](CO)C(=O)N[C@@H](Cc1ccc(O)cc1)C(=O)N[C@@H](CC(=O)O)C(=O)N[C@@H](CC(C)C)C(=O)N[C@@H](CC(=O)O)C(=O)N[C@@H](Cc1ccc(O)cc1)C(=O)N[C@@H](Cc1ccc(O)cc1)C(=O)O	222	215	< 3.00	< 3.00	< 3.00	3.18	121					
CC(C)C[C@H](NC(=O)[C@H](CC(=O)OS(=O)(=O)O)NC(=O)[C@H](Cc1ccc(OS(=O)(=O)O)cc1)NC(=O)[C@H](COS(=O)(=O)O)NC(=O)[C@@H](N)Cc1ccc(OS(=O)(=O)O)cc1)C(=O)N[C@@H](CC(=O)OS(=O)(=O)O)C(=O)N[C@@H](Cc1ccc(OS(=O)(=O)O)cc1)C(=O)N[C@@H](Cc1ccc(OS(=O)(=O)O)cc1)C(=O)O.CCN(CC)CC.CCN(CC)CC.CCN(CC)CC.CCN(CC)CC.CCN(CC)CC.CCN(CC)CC.CCN(CC)CC	52	258					4	4.38	4.74	5.00	5.35	
CCN(CC)CC.CCN(CC)CC.CCN(CC)CC.CCN(CC)CC.CCN(CC)CC.CCN(CC)CC.CCN(CC)CC.CCN(CC)CC.COC(=O)C(=O)N1CCC[C@H]1C(=O)N[C@H](Cc1ccccc1)C(=O)Nc1ccccc1OCC(=O)N[C@@H](Cc1ccc(OS(=O)(=O)O)cc1)C(=O)N[C@@H](COS(=O)(=O)O)C(=O)N[C@@H](Cc1ccc(OS(=O)(=O)O)cc1)C(=O)N[C@@H](CC(=O)OS(=O)(=O)O)C(=O)N[C@@H](CC(C)C)C(=O)N[C@@H](CC(=O)OS(=O)(=O)O)C(=O)N[C@@H](Cc1ccc(OS(=O)(=O)O)cc1)C(=O)N[C@@H](Cc1ccc(OS(=O)(=O)O)cc1)C(=O)O	66	219	4.38	5.00	5.00	5.39	1					
CC(C)C[C@H](NC(=O)[C@H](CC(=O)OS(=O)(=O)[O-])NC(=O)[C@H](Cc1ccc(OS(=O)(=O)[O-])cc1)NC(=O)[C@H](COS(=O)(=O)[O-])NC(=O)[C@@H](N)Cc1ccc(OS(=O)(=O)[O-])cc1)C(=O)N[C@@H](CC(=O)OS(=O)(=O)[O-])C(=O)N[C@@H](Cc1ccc(OS(=O)(=O)[O-])cc1)C(=O)N[C@@H](Cc1ccc(OS(=O)(=O)[O-])cc1)C(=O)O.[Na+].[Na+].[Na+].[Na+].[Na+].[Na+].[Na+]	210	235					191				3.18	
CC(C)C[C@H](NC(=O)[C@H](CC(=O)OS(=O)(=O)O)NC(=O)[C@H](Cc1ccc(OS(=O)(=O)O)cc1)NC(=O)[C@H](COS(=O)(=O)O)NC(=O)[C@@H](N)Cc1ccc(OS(=O)(=O)O)cc1)C(=O)N[C@@H](CC(=O)OS(=O)(=O)O)C(=O)N[C@@H](Cc1ccc(OS(=O)(=O)O)cc1)C(=O)N[C@@H](Cc1ccc(OS(=O)(=O)O)cc1)C(=O)O	165	231					124	< 3.00	< 3.00	< 3.00	< 3.00	
CC(C)C[C@H](NC(=O)[C@H](CC(=O)O)NC(=O)[C@H](Cc1ccc(O)cc1)NC(=O)[C@H](CO)NC(=O)[C@@H](N)Cc1ccc(O)cc1)C(=O)N[C@@H](CC(=O)O)C(=O)N[C@@H](Cc1ccc(O)cc1)C(=O)N[C@@H](Cc1ccc(O)cc1)C(=O)O (H-YSYDLDYY-OH)	252	228	< 3.00	< 3.00	< 3.00	3.18	133					
COC(=O)C(=O)N1CCC[C@H]1C(=O)N[C@H](Cc1ccccc1)C(=O)Nc1ccccc1OCC(=O)N[C@@H](Cc1ccc(O)cc1)C(=O)N[C@@H](CC(=O)O)C(=O)N[C@@H](CC(C)C)C(=O)N[C@@H](CC(=O)O)C(=O)N[C@@H](Cc1ccc(O)cc1)C(=O)N[C@@H](Cc1ccc(O)cc1)C(=O)O	100	155	3.92	3.82	4.00	4.00	55					192
CC(C)C[C@H](NC(=O)[C@H](CC(=O)OS(=O)(=O)O)NC(=O)[C@@H](N)Cc1ccc(OS(=O)(=O)O)cc1)C(=O)N[C@@H](CC(=O)OS(=O)(=O)O)C(=O)N[C@@H](Cc1ccc(OS(=O)(=O)O)cc1)C(=O)N[C@@H](Cc1ccc(OS(=O)(=O)O)cc1)C(=O)O.CCN(CC)CC.CCN(CC)CC.CCN(CC)CC.CCN(CC)CC.CCN(CC)CC (H-[sY]D(X1)LD(X1)[sY][sY]-OH)	52	193	4.26	4.82	4.19	4.60	0					215

From ChEMBL document CHEMBL1134813, “Inhibition of HIV-1 infection by synthetic peptide analogues derived from the NH(2)-Terminal extracellular region of GPR1” (Bioorg Med Chem Lett, 2001)
